How the values were obtained:
TRP-2 = test: Gene expression by RT-qPCR, TRP-2; assay type: cell-based, murine; conditions: 1 μM, 24 h
Experimental: (§1) Cells were seeded and treated for 24 h with the molecules the action of which we want to study, that is to say here, with DDA (1 μM), on the one hand, and with L7DDA (0.1 or 1 or 2.5 or 5 μM) on the other. The results were compared with irradiated ultraviolet cells as in Example 6.
(§2) To quantify the expression of these genes, RNA extraction from cells was performed. Melanocytes were treated for 24 h with the active molecule or the control agent. 1 mL of Trizol® was added; after 5 min at room temperature, the totality was placed in an Eppendorf tube. 200 μL of CHCl3 were added at 4° C. The Eppendorf tubes were stirred manually, by turning them during 15 sec, left for 5 min at room temperature and then centrifuged at 16000 g at 4° C. for 10 min. The colourless aqueous phase was isolated. 500 μL of isopropanol (−20° C.) were added. The Eppendorf tubes were stirred manually, by turning them during 15 sec, left for 15 min at room temperature and then centrifuged at 16200 g at 4° C. for 10 min. The supernatant was removed. The pellet was washed with 1 mL of 75% ethanol (−20° C.). After centrifugation at 16000 g at 4° C. for 5 min, the supernatant was removed. 10 min after drying, the pellet was resuspended with 30 μL of RNAase-free water. The quantity and purity of RNA were estimated by spectrophotometry (230, 260 and 280 nm). […]

tyrosinase [1] = test: Stimulation of tyrosinase activity in melanocytes (L-DOPA oxidation); assay type: cell-based, murine; conditions: cells treated 24 h; with respect to the control (=100%); FIG. 4
Experimental: The study was conducted on healthy murine melanocytes. The results were compared with those obtained with a positive control subjected to a dose of 20 mJ/cm^2 of ultraviolet radiation. The cells were treated for 24 h with either the vehicle used (ethanol) or with the test product. The tyrosinase activity was quantified according to the protocol described by Ando et al. (J. Lipid Res. 1999, 40, 1312) as explained below.
5 Million cells were isolated after centrifugation at 1500 rpm for 5 min at 4° C. The pellet was washed twice with PBS and then transferred into an Eppendorf tube and centrifuged at 5000 g for 5 min. The supernatant was removed. 1 mL of 0.5% by mass sodium deoxycholate solution was added (cell lysis). After 15 min at 0° C., 3 mL of a solution of 0.1% by mass of L-DOPA in 0.1M phosphate buffer (pH 6.8) were added. The whole was placed at 37° C. for 10 min. Tyrosinase activity was spectrophotometrically analysed by following the oxidation of L-DOPA to DOPAchrome. Absorbance was measured at 475 nm. The tyrosinase activity was expressed based on the control (=100%), which determines the cell basal tyrosinase activity.

[2] = tested on: healthy murine melanocytes; test: Quantification of melanin synthesized by melanocytes; assay type: cell-based; conditions: cells treated 24 h; relative to control (=100%); FIG. 3
Experimental: Quantification of synthesized melanin by healthy murine melanocytes was performed according to the protocol described by Ando et al. (J. Lipid Res., 1999, 40, 1312).
Cells were seeded and treated for 24 h with the test product or the used vehicle (ethanol) and with, as a positive control, exposure to a dose of 20 mJ/cm^2 of ultraviolet radiation.
5 Million cells were isolated after centrifugation at 1500 rpm for 5 min at 4° C. The pellet was washed twice with PBS and then transferred into an Eppendorf tube and centrifuged at 5000 g for 5 min. The supernatant was removed. 200 μL of water and 1 mL of EtOH/ether (1/1) were added (melanin was insoluble in this mixture). After 15 min at room temperature, the totality was again centrifuged at 5000 g for 5 min; the supernatant was removed. The pellet was then taken up with 300 μL of a solution of NaOH(1M) in H2O/DMSO 90/10 and placed at 80° C. for one hour. Absorbance was measured at 470 nm. The amount of synthesized melanin was expressed based on the control (=100%).

TRP-1 = test: Gene expression by RT-qPCR, TRP-1; assay type: cell-based, murine; conditions: 1 μM, 24 h
Experimental: as §1, §2

tyrosinase [3] = test: Gene expression by RT-qPCR, tyrosinase; assay type: cell-based, murine; conditions: 1 μM, 24 h
Experimental: as §1, §2

In the case of CC(C)CCC[C@@H](C)[C@H]1CC[C@H]2[C@@H]3C[C@@H](NCCc4c[nH]cn4)[C@@]4(O)C[C@@H](O)CC[C@]4(C)[C@H]3CC[C@]12C [DDA, 5α-hydroxy-6β-[2-(1H-imidazol-4-yl)ethylamino]cholestan-3β-ol], the “ΔΔCT (TRP-2)” value (TRP-2) is reported as 6.97, the “tyrosinase activity in cells” value (tyrosinase [1]) is reported as “increased” and the synthesis of melanin [2] is reported as “increase”. For the same compound, the “ΔΔCT (TRP-1)” value (TRP-1) was 13.45 and the “ΔΔCT (tyrosinase)” value (tyrosinase [3]) was 6.09.

Reference: patent publication US20170216179A1, “COSMETIC AND/OR DERMATOLOGICAL COMPOSITION FOR COLOURING THE SKIN” (AFFICHEM, priority 2014, published 2017)
